# Source: US9546164B2 (GENENTECH, INC., priority 2013, dated 2017)
# Structures can show the parent of a compound that is named as a salt. Where two headings read alike, the source gives them in different places.
# Target: hNav1.7 (Homo sapiens (Human), UniProt Q15858)
# Assay: Tritiated sulfonamide competitive binding to membranes from cells expressing hNav1.7 and the β1 subunit;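 note: Filter-bound radioactivity counted by liquid scintillation, nonspecific binding defined with excess unlabelled ligand, IC50 fitted to percent inhibition of specific binding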
# [1] = read-out: Ligand Binding Assay, 100 pM [3H]compound, membranes with hNav1.7 and β1 subunit, 18 h, room temperature
# Description: Tritiated Sulfonamide Binding to Membranes
# Preparation of membranes containing recombinantly expressed sodium channels: Frozen recombinant cell pellets were thawed on ice and diluted to 4 times the cell pellet weight with ice cold 50 mM TrisHCl, pH 7.4 buffer. The cell suspensions were homogenized on ice using a motorized glass douncehomogeniser. Homogenates were further diluted 8.4 times with ice cold 50 mM TrisHCl, pH 7.4 buffer and then centrifuged at 200×g at 4° C. for 15 min. The supersatants were collected and centrifuged at 10000×g at 4° C. for 50 min. The pellets were then re-suspended in 100 mMNaCl, 20 mM TrisHCl, pH. 7.4 buffer containing 1% v/v protease inhibitors (Calbiochem) and re-homogenized on ice. The homogenized membranes were then processed through a syringe equipped with a 26 gauge needle. Protein concentrations were determined by Bradford Assay and the membranes were stored at −80° C.
# Radioligand Binding Studies: Saturation experiments. A representative compound of formula (I) having a methyl group was tritiated. Three tritiums were incorporated in place of methyl hydrogens to generate [^3H]compound. Binding of this radioligand was preformed in 5 mL borosilicate glass test tubes at room temperature. Binding was initiated by adding membranes to increasing concentrations of [^3H]compound in 100 mM NaCl, 20 mM TrisHCl, pH 7.4 buffer containing 0.01% w/v bovine serum albumin (BSA) for 18 h. Non-specific binding was determined in the presence of 1 μM unlabelled compound. After 18 h, the reactants were filtered through GF/C glass fiber filters presoaked in 0.5% w/v polyethylene imine. Filters were washed with 15 mL ice cold 100 mM NaCl, 20 mM TrisHCl, pH7.4 buffer containing 0.25% BSA to separate bound from free ligand. [^3H]compound bound to filters was quantified by liquid scintillation counting.
# Competitive binding experiments: Binding reactions were preformed its 96-well polypropylene plates at room temperature for 18 h. In 360 μL, membranes were incubated with 100 pM [^3H]compound and increasing concentrations of Test Compound. Non-specific binding was defined in the presence of 1 μM unlabelled compound. Reactions were transferred and filtered through 96-well glass fiber/C filter plates presoaked with 0.5% polyethylene imine. The filtered reactions were washed 5 times with 200 μL ice cold butter containing 0.25% BSA. Bound radioactivity was determined by liquid scintillation counting.
# Data Analysis: For saturation experiments, non-specific binding was subtracted from total binding to provide specific binding and these values were recalculated in terms of pmol ligand bound per mg protein. Saturation curves were constructed and dissociation constants were calculated using the single site ligand binding model: Beq=(Bmax*X)/(X+KD), where Beq is the amount of ligand bound at equilibrium, Bmax is the maximum receptor density, Kd is the dissociation constant for the ligand, and X is the tree ligand concentration. For competition studies percent inhibition was determined and IC50 values were calculated using a 4 parameter logistic model (% inhibition=(A+((B−A)/(1+((x/C)^D)))) using XLfit, where A and B are the maximal and minimum inhibition respectively, C is the IC50 concentration and D is the (Hill) slope.
# Sequence of hNav1.7 (Q15858 other isoform, or with tags, fused parts or gaps): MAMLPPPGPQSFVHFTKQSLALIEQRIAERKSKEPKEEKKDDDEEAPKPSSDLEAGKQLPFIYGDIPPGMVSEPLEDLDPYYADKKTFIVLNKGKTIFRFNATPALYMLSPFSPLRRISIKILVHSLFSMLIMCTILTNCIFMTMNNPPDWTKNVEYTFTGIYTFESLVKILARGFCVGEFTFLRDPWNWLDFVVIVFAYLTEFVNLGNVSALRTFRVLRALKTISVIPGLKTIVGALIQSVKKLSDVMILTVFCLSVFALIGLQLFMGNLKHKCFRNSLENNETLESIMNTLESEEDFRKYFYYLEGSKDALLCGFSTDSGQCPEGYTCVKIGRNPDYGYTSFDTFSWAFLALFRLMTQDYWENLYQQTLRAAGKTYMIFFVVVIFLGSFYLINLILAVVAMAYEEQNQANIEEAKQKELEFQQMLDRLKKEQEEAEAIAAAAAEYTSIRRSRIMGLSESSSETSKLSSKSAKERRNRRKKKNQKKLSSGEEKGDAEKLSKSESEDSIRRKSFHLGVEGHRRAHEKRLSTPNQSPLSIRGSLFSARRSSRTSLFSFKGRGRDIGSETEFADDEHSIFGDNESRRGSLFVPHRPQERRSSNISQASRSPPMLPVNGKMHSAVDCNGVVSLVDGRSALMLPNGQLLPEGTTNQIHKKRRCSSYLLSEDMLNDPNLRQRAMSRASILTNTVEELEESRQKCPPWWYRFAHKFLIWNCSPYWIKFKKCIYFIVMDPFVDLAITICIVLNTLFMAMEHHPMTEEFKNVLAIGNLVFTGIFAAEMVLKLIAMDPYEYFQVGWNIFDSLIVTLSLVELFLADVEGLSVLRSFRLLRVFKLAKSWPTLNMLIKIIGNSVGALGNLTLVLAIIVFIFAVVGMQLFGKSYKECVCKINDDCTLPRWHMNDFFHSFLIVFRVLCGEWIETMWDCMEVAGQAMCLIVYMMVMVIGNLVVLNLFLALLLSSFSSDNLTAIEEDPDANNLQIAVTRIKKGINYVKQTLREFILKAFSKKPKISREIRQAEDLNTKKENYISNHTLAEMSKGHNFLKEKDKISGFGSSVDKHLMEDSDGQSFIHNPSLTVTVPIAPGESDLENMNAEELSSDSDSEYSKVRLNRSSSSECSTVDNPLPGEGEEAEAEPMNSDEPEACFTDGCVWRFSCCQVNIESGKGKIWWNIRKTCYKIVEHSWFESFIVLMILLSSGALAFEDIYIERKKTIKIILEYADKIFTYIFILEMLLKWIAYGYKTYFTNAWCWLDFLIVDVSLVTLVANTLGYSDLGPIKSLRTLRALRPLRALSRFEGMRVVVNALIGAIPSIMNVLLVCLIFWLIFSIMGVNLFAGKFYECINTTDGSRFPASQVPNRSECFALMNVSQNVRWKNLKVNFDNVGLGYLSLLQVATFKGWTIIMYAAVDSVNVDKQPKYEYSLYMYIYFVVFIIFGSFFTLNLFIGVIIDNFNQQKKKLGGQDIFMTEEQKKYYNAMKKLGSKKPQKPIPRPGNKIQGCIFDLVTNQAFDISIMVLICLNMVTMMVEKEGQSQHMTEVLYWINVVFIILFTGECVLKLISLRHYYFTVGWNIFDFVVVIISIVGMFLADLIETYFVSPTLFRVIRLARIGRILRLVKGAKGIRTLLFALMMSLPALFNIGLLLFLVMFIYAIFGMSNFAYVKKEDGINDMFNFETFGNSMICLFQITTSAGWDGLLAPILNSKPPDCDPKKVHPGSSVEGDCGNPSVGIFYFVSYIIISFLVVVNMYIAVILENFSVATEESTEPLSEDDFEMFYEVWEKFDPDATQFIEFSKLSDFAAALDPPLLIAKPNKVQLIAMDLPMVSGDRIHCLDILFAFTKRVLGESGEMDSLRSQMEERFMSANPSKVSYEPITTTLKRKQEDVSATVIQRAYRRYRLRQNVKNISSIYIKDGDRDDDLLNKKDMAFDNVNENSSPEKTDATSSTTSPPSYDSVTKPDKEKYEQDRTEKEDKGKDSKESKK
# Sequence of hNav1.7 (Q07699 19-218 partner): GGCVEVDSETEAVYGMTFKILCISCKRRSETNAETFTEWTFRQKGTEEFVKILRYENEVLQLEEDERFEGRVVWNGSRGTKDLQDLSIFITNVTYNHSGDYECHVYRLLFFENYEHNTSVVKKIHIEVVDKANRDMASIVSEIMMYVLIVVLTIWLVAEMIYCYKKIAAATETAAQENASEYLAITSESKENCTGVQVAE
IC50 [1],Compound,further results
2.05 nM,"CS(=O)(=O)NC(=O)c1cc(C2CC2)c(OCC2CCN(Cc3cc(Cl)cc(C(F)(F)F)c3)CC2)cc1F [Example 137, 4-((1-(3-Chloro-5-(trifluoromethyl)benzyl)piperidin-4-yl)methoxy)-5-cyclopropyl-2-fluoro-N-(methylsulfonyl)benzamide]",
6.3 nM,"O=C(NS(=O)(=O)C1CC1)c1cc(C2CC2)c(OCC2(F)CCN(Cc3cc(C(F)(F)F)cc(Cl)c3F)CC2)cc1F [Example 347, 4-((1-(3-chloro-2-fluoro-5-(trifluoromethyl)benzyl)-4-fluoropiperidin-4-yl)methoxy)-5-cyclopropyl-N-(cyclopropylsulfonyl)-2-fluorobenzamide, trifluoroacetic acid salt]",
64 nM,"CS(=O)(=O)NC(=O)c1cc(C2CC2)c(OCC2CCN(C(=O)c3ccc(Cl)c(Cl)c3)CC2)cc1F [Example 232, 5-Cyclopropyl-4-((1-(3,4-dichlorobenzoyl)piperidin-4-yl)methoxy)-2-fluoro-N-(methylsulfonyl)benzamide]",
,"O=C(NS(=O)(=O)C1CC1)c1cc(C2CC2)c(O[C@@H]2CCCN(c3ccc(F)cc3)C2)cc1F [Example 38, (R)-5-cyclopropyl-N-(cyclopropylsulfonyl)-2-fluoro-4-((1-(4-fluorophenyl)piperidin-3-yl)oxy)benzamide]",IC50: 3.9 nM
,"CS(=O)(=O)NC(=O)c1cc(C2CC2)c(O[C@@H]2CCCN(Cc3ccc(Cl)cc3Cl)C2)cc1F [Example 29, (R)-5-cyclopropyl-4-((1-(2,4-dichlorobenzyl)piperidin-3-yl)oxy)-2-fluoro-N-(methylsulfonyl)benzamide]",IC50: 1.7 nM
6.57 nM,"CS(=O)(=O)NC(=O)c1cc(C2CC2)c(OCC2CN([C@@H](c3ccccc3)c3cc(Cl)cc(Cl)c3)C2)cc1F [Example 142, (S)-5-Cyclopropyl-4-((1-((3,5-dichlorophenyl)(phenyl)methyl)azetidin-3-yl)methoxy)-2-fluoro-N-(methylsulfonyl)benzamide]",
30.1 nM,"C[C@H](c1cc(Cl)cc(Cl)c1)N1CC(COc2cc(F)c(C(=O)NS(C)(=O)=O)cc2C2CC2)C1 [Example 121, (R)-5-Cyclopropyl-4-((1-(1-(3,5-dichlorophenyl)ethyl)azetidin-3-yl)methoxy)-2-fluoro-N-(methylsulfonyl)benzamide]",
2.9 nM,"O=C(NS(=O)(=O)C1CC1)c1cc(C2CC2)c(OCC2CCN(c3cc(C(F)(F)F)c(Cl)cn3)CC2)cc1F [Example 555, 4-((1-(5-chloro-4-(trifluoromethyl)pyridin-2-yl)piperidin-4-yl)methoxy)-5-cyclopropyl-N-(cyclopropylsulfonyl)-2-fluorobenzamide]",
138 nM,"CS(=O)(=O)NC(=O)c1cc(C2CC2)c(O[C@@H]2CCCN(Cc3ccc(S(C)(=O)=O)cc3Cl)C2)cc1F [Example 441, (R)-4-((1-(2-chloro-4-(methylsulfonyl)benzyl)piperidin-3-yl)oxy)-5-cyclopropyl-2-fluoro-N-(methylsulfonyl)benzamide, trifluoroacetic acid salt]",
5 nM,"COC[C@@H](c1ccc(F)c(C(F)(F)F)c1)N1CCC(COc2cc(F)c(C(=O)NS(C)(=O)=O)cc2C2CC2)CC1 (single isomer, unassigned) [Example 187]",
,"CS(=O)(=O)NC(=O)c1cc(C2CC2)c(CN2[C@@H]3CC[C@H]2C[C@@H](Oc2ncc(C(F)(F)F)cc2Cl)C3)cc1F [Example 552, 4-(((1R,3r,5S)-3-((3-chloro-5-(trifluoromethyl)pyridin-2-yl)oxy)-8-azabicyclo[3.2.1]octan-8-yl)methyl)-5-cyclopropyl-2-fluoro-N-(methylsulfonyl)benzamide, trifluoroacetic acid salt]","IC50 (read-out: Ligand Binding Assay, 100 pM [3H]compound, membranes with hNav1.7 and β1 subunit, 18 h, room temperature, trifluoroacetic acid salt): 7 nM"
100 nM,"CS(=O)(=O)NC(=O)c1cc(C2CC2)c(OCC2CN([C@@H](c3ccccc3)c3ccccc3Cl)C2)cc1F [Example 150, (S)-4-((1-((2-Chlorophenyl)(phenyl)methyl)azetidin-3-yl)methoxy)-5-cyclopropyl-2-fluoro-N-(methylsulfonyl)benzamide]",
5.3 nM,"C[C@H](c1cc(Cl)cc(Cl)c1)N1CCC(F)(COc2cc(F)c(C(=O)NS(C)(=O)=O)cc2C2CC2)CC1 [Example 351, (R)-5-cyclopropyl-4-((1-(1-(3,5-dichlorophenyl)ethyl)-4-fluoropiperidin-4-yl)methoxy)-2-fluoro-N-(methylsulfonyl)benzamide, trifluoroacetic acid]",
14 nM,"CS(=O)(=O)NC(=O)c1cc(C2CC2)c(OCC2CN(Cc3cc(Cl)cc(Cl)c3)C2)cc1F [Example 132, 5-Cyclopropyl-4-((1-(3,5-dichlorobenzyl)azetidin-3-yl)methoxy)-2-fluoro-N-(methylsulfonyl)benzamide]",
56 nM,"CS(=O)(=O)NC(=O)c1cc(C2CC2)c(OCC2CCN(Cc3cnc(OCC(F)(F)F)c(Cl)c3)CC2)cc1F [Example 190, 4-((1-((5-Chloro-6-(2,2,2-trifluoroethoxy)pyridin-3-yl)methyl)piperidin-4-yl)methoxy)-5-cyclopropyl-2-fluoro-N-(methylsulfonyl)benzamide]",
7.6 nM,"CC1(COc2cc(F)c(C(=O)NS(C)(=O)=O)cc2C2CC2)CCN(C2(c3cc(Cl)cc(Cl)c3)COC2)CC1 [Example 178, 5-Cyclopropyl-4-((1-(3-(3,5-dichlorophenyl)oxetan-3-yl)-4-methylpiperidin-4-yl)methoxy)-2-fluoro-N-(methylsulfonyl)benzamide]",
34 nM,"CS(=O)(=O)NC(=O)c1cc(C2CC2)c(OCC2CCN(CC(F)(F)C(F)F)CC2)cc1F [Example 192, 5-Cyclopropyl-2-fluoro-N-(methylsulfonyl)-4-((1-(2,2,3,3-tetrafluoropropyl)piperidin-4-yl)methoxy)benzamide]",
14.5 nM,"O=C(NS(=O)(=O)C1CC1)c1cc(C2CC2)c(OCC2CCN(S(=O)(=O)c3ccc(Br)c(F)c3)CC2)cc1F [Example 369, 4-((1-((4-bromo-3-fluorophenyl)sulfonyl)piperidin-4-yl)methoxy)-5-cyclopropyl-N-(cyclopropylsulfonyl)-2-fluorobenzamide]",
243 nM,"O=C(NS(=O)(=O)N1CCC1)c1cc(C2CC2)c(O[C@@H]2CCCN(c3ccccn3)C2)cc1F [Example 493, (R)—N-(azetidin-1-ylsulfonyl)-5-cyclopropyl-2-fluoro-4-((1-(pyridin-2-yl)piperidin-3-yl)oxy)benzamide]",
6010 nM,"CS(=O)(=O)N1CCC(COc2cc(F)c(C(=O)NS(=O)(=O)C3CC3)cc2C2CC2)CC1 [Example 394, 5-cyclopropyl-N-(cyclopropylsulfonyl)-2-fluoro-4-((1-(methylsulfonyl)piperidin-4-yl)methoxy)benzamide]",
5 nM,"COC[C@@](C)(c1cc(Cl)cc(Cl)c1)N1CCC(COc2cc(F)c(C(=O)NS(C)(=O)=O)cc2C2CC2)CC1 (single isomer, unassigned) [Example 201]",
10.9 nM,"CS(=O)(=O)NC(=O)c1cc(C2CC2)c(OCC2CCN(Cc3nc(-c4ccccc4Cl)no3)CC2)cc1F [Example 410, 4-((1-((3-(2-chlorophenyl)-1,2,4-oxadiazol-5-yl)methyl)piperidin-4-yl)methoxy)-5-cyclopropyl-2-fluoro-N-(methylsulfonyl)benzamide, trifluoroacetic acid salt]",
37.2 nM,"C[C@H](c1ccc(F)cc1)N1CCC[C@@H](Oc2cc(F)c(C(=O)NS(C)(=O)=O)cc2C2CC2)C1 [Example 316, 5-cyclopropyl-2-fluoro-4-(((R)-1-((R)-1-(4-fluorophenyl)ethyl)piperidin-3-yl)oxy)-N-(methylsulfonyl)benzamide]",
,"O=C(NS(=O)(=O)C1CC1)c1cc(C2CC2)c(O[C@@H]2CCCN(Cc3ccc(F)cc3F)C2)cc1F [Example 9, (R)-5-cyclopropyl-N-(cyclopropylsulfonyl)-4-((1-(2,4-difluorobenzyl)-piperidin-3-yl)oxy)-2-fluorobenzamide]",IC50: 3.5 nM
12.8 nM,"O=C(NS(=O)(=O)N1CCC1)c1cc(C2CC2)c(CN2CCO[C@H](Cc3cc(Cl)cc(Cl)c3)C2)cc1F [Example 465, (R)—N-(azetidin-1-ylsulfonyl)-5-cyclopropyl-4-((2-(3,5-dichlorobenzyl)morpholino)methyl)-2-fluorobenzamide, trifluoroacetic acid salt]",
6 nM,"C[C@H](c1ccc(F)cc1)N1CCC[C@@H](Oc2cc(F)c(C(=O)NS(=O)(=O)C3CC3)cc2C2CC2)C1 [Example 317, 5-cyclopropyl-N-(cyclopropylsulfonyl)-2-fluoro-4-(((R)-1-((R)-1-(4-fluorophenyl)ethyl)piperidin-3-yl)oxy)benzamide]",
,"O=C(NS(=O)(=O)N1CCC1)c1cc(C2CC2)c(O[C@@H]2CCCN(Cc3ccc(Cl)cc3Cl)C2)cc1F [Example 30, (R)—N-(azetidin-1-ylsulfonyl)-5-cyclopropyl-4-((1-(2,4-dichlorobenzyl)piperidin-3-yl)oxy)-2-fluorobenzamide]",IC50: 2.7 nM
6.9 nM,"CCS(=O)(=O)NC(=O)c1cc(C2CC2)c(OC[C@@H]2CC[C@@H](C)N([C@@H](C)c3cc(Cl)cc(Cl)c3)C2)cc1F [Example 344, trifluoroacetic acid salt]",
630 nM,"CS(=O)(=O)NC(=O)c1cc(C2CC2)c(OCC2CN([C@H](c3ccccc3)c3cccnc3)C2)cc1F [Example 81, (R)-5-Cyclopropyl-2-fluoro-N-(methylsulfonyl)-4-((1-(phenyl(pyridin-3-yl)methyl)azetidin-3-yl)methoxy)benzamide]",

Compound,IC50 [1],further results
"CS(=O)(=O)NC(=O)c1cc(C2CC2)c(CN2[C@@H]3CC[C@H]2CC(Oc2cc(C(F)(F)F)cc(Cl)c2F)C3)cc1F (stereo partly drawn) [Example 471, 4-(((1R,3r,5S)-3-(3-chloro-2-fluoro-5-(trifluoromethyl)phenoxy)-8-azabicyclo[3.2.1]octan-8-yl)methyl)-5-cyclopropyl-2-fluoro-N-(methylsulfonyl)benzamide 2,2,2-trifluoroacetate]",3.7 nM,
